Experimental data taken from PubChem BioAssay (NCI).
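Here, GI50 denotes the concentration required for 50% inhibition of growth. TGI denotes the concentration required for complete inhibition of growth.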

Columns and labels:
Test in all cases: NCI tumour cell line growth inhibition, 384-well format
[1] = system: SW-620 colon
[2] = system: ACHN renal
[3] = system: DU-145 prostate
[4] = system: UACC-257 melanoma
[5] = system: MDA-MB-435 melanoma
[6] = system: SNB-75 CNS
[7] = system: HT29 colon
[8] = system: MALME-3M melanoma
[9] = system: HCT-116 colon
[10] = system: PC-3 prostate
[11] = system: SN12C renal
[12] = system: SF-295 CNS
[13] = system: BT-549 breast
[14] = system: MDA-MB-468 breast
[15] = system: CCRF-CEM leukemia
[16] = system: RXF 393 renal
[17] = system: NCI-H460 NSCLC
[18] = system: HOP-92 NSCLC
[19] = system: NCI-H226 lung
[20] = system: OVCAR-8 ovarian
[21] = system: 786-0 renal
[22] = system: CAKI-1 renal
[23] = system: MCF7 breast
[24] = system: SK-MEL-28 melanoma
[25] = system: UO-31 renal
[26] = system: A498 renal
[27] = system: SF-539 CNS
[28] = system: T-47D breast
[29] = system: HCT-15 colon
[30] = system: EKVX NSCLC
[31] = system: M14 melanoma
[32] = system: A549 NSCLC
[33] = system: SR leukemia
[34] = system: OVCAR-4 ovarian
[35] = system: MOLT-4 leukemia
[36] = system: NCI/ADR-RES ovarian
[37] = system: HCC-2998 colon
[38] = system: MDA-MB-231 breast
[39] = system: COLO 205 colon
[40] = system: KM12 colon
[41] = system: SNB-19 CNS
[42] = system: SK-MEL-5 melanoma
[43] = system: HS 578T breast
[44] = system: RPMI-8226 leukemia
[45] = system: K-562 leukemia
[46] = system: SF-268 CNS
[47] = system: HOP-62 NSCLC
[48] = system: IGROV1 ovarian
[49] = system: NCI-H522 lung
[50] = system: TK-10 renal
[51] = system: NCI-H23 lung
[52] = system: HL-60(TB) leukemia
[53] = system: LOX IMVI melanoma
[54] = system: U251 glioblastoma
[55] = system: OVCAR-3 ovarian
[56] = system: SK-OV-3 ovarian
[57] = system: NCI-H322M lung
[58] = system: OVCAR-5 ovarian

**Q.** With `Cn1cc(-c2ccc3nnc(C(F)(F)c4ccc5ncccc5c4)n3n2)cn1` as the compound, how does the GI50 [1] read?
**A.** > 100 µM

**Q.** And the TGI [1]?
**A.** > 100 µM

**Q.** What about the GI50 [2] of the same compound?
**A.** 46.1 µM

**Q.** And the TGI [2]?
**A.** > 100 µM

**Q.** And the GI50 [3]?
**A.** 59.1 µM

**Q.** What about the TGI [3] of the same compound?
**A.** > 100 µM

**Q.** What about the GI50 [4] of the same compound?
**A.** > 100 µM

**Q.** And the TGI [4]?
**A.** > 100 µM

**Q.** And the GI50 [5]?
**A.** > 100 µM

**Q.** What about the TGI [5] of the same compound?
**A.** > 100 µM

**Q.** And the GI50 [6]?
**A.** 43.1 µM

**Q.** And the TGI [6]?
**A.** > 100 µM

**Q.** And the GI50 [7]?
**A.** 95.3 µM

**Q.** And the TGI [7]?
**A.** > 100 µM

**Q.** And the GI50 [8]?
**A.** 65 µM

**Q.** What about the TGI [8] of the same compound?
**A.** > 100 µM

**Q.** And the GI50 [9]?
**A.** 49.2 µM

**Q.** What about the TGI [9] of the same compound?
**A.** > 100 µM

**Q.** And the GI50 [10]?
**A.** 52.9 µM

**Q.** What about the TGI [10] of the same compound?
**A.** > 100 µM

**Q.** And the GI50 [11]?
**A.** 45.2 µM

**Q.** And the TGI [11]?
**A.** > 100 µM

**Q.** And the GI50 [12]?
**A.** 2.06 µM

**Q.** What about the TGI [12] of the same compound?
**A.** > 100 µM

**Q.** What about the GI50 [13] of the same compound?
**A.** 38.1 µM

**Q.** And the TGI [13]?
**A.** > 100 µM

**Q.** And the GI50 [14]?
**A.** 10.2 µM

**Q.** What about the TGI [14] of the same compound?
**A.** 59.6 µM

**Q.** What about the GI50 [15] of the same compound?
**A.** 48.5 µM

**Q.** And the TGI [15]?
**A.** > 100 µM

**Q.** What about the GI50 [16] of the same compound?
**A.** 25.2 µM

**Q.** And the TGI [16]?
**A.** 72.7 µM

**Q.** What about the GI50 [17] of the same compound?
**A.** 45.8 µM

**Q.** What about the TGI [17] of the same compound?
**A.** > 100 µM

**Q.** What about the GI50 [18] of the same compound?
**A.** 39.7 µM

**Q.** And the TGI [18]?
**A.** > 100 µM

**Q.** What about the GI50 [19] of the same compound?
**A.** 56.3 µM

**Q.** And the TGI [19]?
**A.** > 100 µM

**Q.** And the GI50 [20]?
**A.** 61.4 µM

**Q.** What about the TGI [20] of the same compound?
**A.** > 100 µM

**Q.** And the GI50 [21]?
**A.** 43.9 µM

**Q.** What about the TGI [21] of the same compound?
**A.** > 100 µM

**Q.** And the GI50 [22]?
**A.** 46.4 µM

**Q.** What about the TGI [22] of the same compound?
**A.** > 100 µM

**Q.** And the GI50 [23]?
**A.** 41.8 µM

**Q.** What about the TGI [23] of the same compound?
**A.** > 100 µM

**Q.** And the GI50 [24]?
**A.** > 100 µM

**Q.** What about the TGI [24] of the same compound?
**A.** > 100 µM

**Q.** And the GI50 [25]?
**A.** 58.6 µM

**Q.** What about the TGI [25] of the same compound?
**A.** > 100 µM

**Q.** And the GI50 [26]?
**A.** 63.2 µM

**Q.** What about the TGI [26] of the same compound?
**A.** > 100 µM

**Q.** And the GI50 [27]?
**A.** 56.3 µM

**Q.** And the TGI [27]?
**A.** > 100 µM

**Q.** And the GI50 [28]?
**A.** 41.1 µM

**Q.** What about the TGI [28] of the same compound?
**A.** > 100 µM

**Q.** And the GI50 [29]?
**A.** 60.5 µM

**Q.** What about the TGI [29] of the same compound?
**A.** > 100 µM

**Q.** And the GI50 [30]?
**A.** 52.6 µM

**Q.** And the TGI [30]?
**A.** > 100 µM

**Q.** What about the GI50 [31] of the same compound?
**A.** > 100 µM

**Q.** What about the TGI [31] of the same compound?
**A.** > 100 µM

**Q.** And the GI50 [32]?
**A.** 85.5 µM

**Q.** What about the TGI [32] of the same compound?
**A.** > 100 µM

**Q.** What about the GI50 [33] of the same compound?
**A.** 24.2 µM

**Q.** And the TGI [33]?
**A.** > 100 µM

**Q.** What about the GI50 [34] of the same compound?
**A.** 59.9 µM

**Q.** And the TGI [34]?
**A.** > 100 µM

**Q.** And the GI50 [35]?
**A.** 17.6 µM

**Q.** And the TGI [35]?
**A.** 36.4 µM

**Q.** What about the GI50 [36] of the same compound?
**A.** 41.4 µM

**Q.** What about the TGI [36] of the same compound?
**A.** > 100 µM

**Q.** And the GI50 [37]?
**A.** 49.9 µM

**Q.** What about the TGI [37] of the same compound?
**A.** > 100 µM

**Q.** And the GI50 [38]?
**A.** 53.5 µM

**Q.** And the TGI [38]?
**A.** > 100 µM

**Q.** And the GI50 [39]?
**A.** 99 µM

**Q.** And the TGI [39]?
**A.** > 100 µM

**Q.** What about the GI50 [40] of the same compound?
**A.** 47.8 µM

**Q.** And the TGI [40]?
**A.** > 100 µM

**Q.** What about the GI50 [41] of the same compound?
**A.** 67.3 µM

**Q.** And the TGI [41]?
**A.** > 100 µM

**Q.** What about the GI50 [42] of the same compound?
**A.** 29.7 µM

**Q.** What about the TGI [42] of the same compound?
**A.** > 100 µM

**Q.** What about the GI50 [43] of the same compound?
**A.** 35.3 µM

**Q.** And the TGI [43]?
**A.** > 100 µM

**Q.** What about the GI50 [44] of the same compound?
**A.** 23.7 µM

**Q.** What about the TGI [44] of the same compound?
**A.** 97.8 µM

**Q.** What about the GI50 [45] of the same compound?
**A.** 53.6 µM

**Q.** What about the TGI [45] of the same compound?
**A.** > 100 µM

**Q.** And the GI50 [46]?
**A.** 98.1 µM

**Q.** And the TGI [46]?
**A.** > 100 µM

**Q.** And the GI50 [47]?
**A.** 41.2 µM

**Q.** And the TGI [47]?
**A.** > 100 µM

**Q.** What about the GI50 [48] of the same compound?
**A.** 58.2 µM

**Q.** And the TGI [48]?
**A.** > 100 µM

**Q.** And the GI50 [49]?
**A.** 41.6 µM

**Q.** And the TGI [49]?
**A.** > 100 µM

**Q.** What about the GI50 [50] of the same compound?
**A.** 47.6 µM

**Q.** What about the TGI [50] of the same compound?
**A.** > 100 µM

**Q.** What about the GI50 [51] of the same compound?
**A.** 25 µM

**Q.** And the TGI [51]?
**A.** > 100 µM

**Q.** And the GI50 [52]?
**A.** 36.3 µM

**Q.** And the TGI [52]?
**A.** > 100 µM

**Q.** And the GI50 [53]?
**A.** 68.5 µM

**Q.** What about the TGI [53] of the same compound?
**A.** > 100 µM

**Q.** What about the GI50 [54] of the same compound?
**A.** 66.3 µM

**Q.** What about the TGI [54] of the same compound?
**A.** > 100 µM

**Q.** And the GI50 [55]?
**A.** 61.8 µM

**Q.** And the TGI [55]?
**A.** > 100 µM

**Q.** What about the GI50 [56] of the same compound?
**A.** 75.5 µM

**Q.** What about the TGI [56] of the same compound?
**A.** > 100 µM

**Q.** What about the GI50 [57] of the same compound?
**A.** 62.9 µM

**Q.** And the TGI [57]?
**A.** > 100 µM

**Q.** And the GI50 [58]?
**A.** 59.8 µM

**Q.** And the TGI [58]?
**A.** > 100 µM
